“And” between values parts separate entries of the source, which are not always exact repeats. Equal entries are not always repeated. Inconclusive results and toxic doses are left out. Cut-off read from the data, not from the text of the source: active = T/C of 150% or more; inactive = T/C below 125%.
Tested on: L1210 leukemia ip in BDF1 mice, survival T/C
Assay: NCI In Vivo Anticancer Drug Screen. Data for tumor model L1210 Leukemia (intraperitoneal) in B6D2F1 (BDF1) mice
Conditions: higher = longer survival
Outline: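 Mice bearing the transplanted tumor received compound or vehicle. Survival of the treated group was divided by that of the vehicle-treated control group to give the ratio.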

[1] = endpoint: mean survival time, dose: 100.0 mg/kg/injection, schedule: Q04DX003 (ip), vehicle: saline with Tween-80
[2] = endpoint: mean survival time, dose: 12.5 mg/kg/injection, schedule: Q04DX003 (ip), vehicle: saline
[3] = endpoint: mean survival time, dose: 25.0 mg/kg/injection, schedule: Q04DX003 (ip), vehicle: saline
[4] = endpoint: mean survival time, dose: 50.0 mg/kg/injection, schedule: Q04DX003 (ip), vehicle: saline
[5] = endpoint: mean survival time, dose: 100.0 mg/kg/injection, schedule: Q04DX003 (ip), vehicle: saline
[6] = endpoint: mean survival time, dose: 100.0 mg/kg/injection, schedule: Q01DX009 (ip), vehicle: saline with Tween-80
[7] = endpoint: mean survival time, dose: 200.0 mg/kg/injection, schedule: Q01DX009 (ip), vehicle: saline with Tween-80
[8] = endpoint: mean survival time, dose: 100.0 mg/kg/injection, schedule: Q01DX001 (ip), vehicle: saline
[9] = endpoint: mean survival time, dose: 200.0 mg/kg/injection, schedule: Q04DX003 (ip), vehicle: saline with Tween-80
[10] = endpoint: mean survival time, dose: 400.0 mg/kg/injection, schedule: Q04DX003 (ip), vehicle: saline with Tween-80
[11] = endpoint: mean survival time, dose: 100.0 mg/kg/injection, schedule: Q01DX009 (ip), vehicle: Klucel (hydroxypropylcellulose) (HPC)
[12] = endpoint: mean survival time, dose: 200.0 mg/kg/injection, schedule: Q01DX009 (ip), vehicle: Klucel (hydroxypropylcellulose) (HPC)
[13] = endpoint: mean survival time, dose: 400.0 mg/kg/injection, schedule: Q01DX009 (ip), vehicle: Klucel (hydroxypropylcellulose) (HPC)
[14] = endpoint: mean survival time, dose: 12.5 mg/kg/injection, schedule: Q01DX009 (ip), vehicle: Klucel (hydroxypropylcellulose) (HPC)
[15] = endpoint: mean survival time, dose: 25.0 mg/kg/injection, schedule: Q01DX009 (ip), vehicle: Klucel (hydroxypropylcellulose) (HPC)
[16] = endpoint: mean survival time, dose: 50.0 mg/kg/injection, schedule: Q01DX009 (ip), vehicle: Klucel (hydroxypropylcellulose) (HPC)
[17] = endpoint: mean survival time, dose: 25.0 mg/kg/injection, schedule: Q04DX003 (ip), vehicle: Klucel (hydroxypropylcellulose) (HPC)
[18] = endpoint: mean survival time, dose: 50.0 mg/kg/injection, schedule: Q04DX003 (ip), vehicle: Klucel (hydroxypropylcellulose) (HPC)
[19] = endpoint: mean survival time, dose: 100.0 mg/kg/injection, schedule: Q04DX003 (ip), vehicle: Klucel (hydroxypropylcellulose) (HPC)
[20] = endpoint: mean survival time, dose: 75.0 mg/kg/injection, schedule: Q04DX003 (ip), vehicle: Klucel (hydroxypropylcellulose) (HPC)
[21] = endpoint: mean survival time, dose: 150.0 mg/kg/injection, schedule: Q04DX003 (ip), vehicle: Klucel (hydroxypropylcellulose) (HPC)
[22] = endpoint: mean survival time, dose: 300.0 mg/kg/injection, schedule: Q04DX003 (ip), vehicle: Klucel (hydroxypropylcellulose) (HPC)
[23] = endpoint: mean survival time, dose: 100.0 mg/kg/injection, schedule: Q01DX001 (ip), vehicle: Klucel (hydroxypropylcellulose) (HPC)
[24] = endpoint: mean survival time, dose: 200.0 mg/kg/injection, schedule: Q01DX001 (ip), vehicle: Klucel (hydroxypropylcellulose) (HPC)

Measured: T/C

CC(=O)OC(CO)C(NC(=O)N1C(=O)C=CC1=O)NC(=O)N1C(=O)C=CC1=O (centres undefined)
inactive: endpoint: mean survival time, dose: 100.0 mg/kg/injection, schedule: Q01DX001 (ip), vehicle: carboxymethylcellulose (CMC) 95 % of control | endpoint: mean survival time, dose: 200.0 mg/kg/injection, schedule: Q01DX001 (ip), vehicle: carboxymethylcellulose (CMC) 101 % of control | endpoint: mean survival time, dose: 400.0 mg/kg/injection, schedule: Q01DX001 (ip), vehicle: carboxymethylcellulose (CMC) 113 % of control

CCCCCCCCCCCCCCCCCc1nc(N)nc(N(C)C)n1
inactive: endpoint: mean survival time, dose: 25.0 mg/kg/injection, schedule: Q04DX003 (ip), vehicle: saline with Tween-80 97 % of control | endpoint: mean survival time, dose: 50.0 mg/kg/injection, schedule: Q04DX003 (ip), vehicle: saline with Tween-80 96 % of control | [1] 97 % of control

Clc1nc(I)c(Cl)c(I)n1
inactive: endpoint: mean survival time, dose: 6.25 mg/kg/injection, schedule: Q01DX009 (ip), vehicle: other 119 % of control | endpoint: mean survival time, dose: 12.5 mg/kg/injection, schedule: Q01DX009 (ip), vehicle: other 101 % of control | endpoint: mean survival time, dose: 25.0 mg/kg/injection, schedule: Q01DX009 (ip), vehicle: other 94 % of control

CCOC(=O)NC1=C(NCCCl)C(=O)C(NC(=O)OCC)=C(NCCCl)C1=O
inactive: endpoint: mean survival time, dose: 6.25 mg/kg/injection, schedule: Q04DX003 (ip), vehicle: saline 92 % of control | [2] 95 % of control | [3] 106 % of control | [4] 104 % of control | [5] 90 % of control

COc1cc(C(C)=O)ccc1OCc1ccccc1
inactive: endpoint: mean survival time, dose: 25.0 mg/kg/injection, schedule: Q01DX009 (ip), vehicle: saline with Tween-80 98 % of control and 107 % of control | endpoint: mean survival time, dose: 50.0 mg/kg/injection, schedule: Q01DX009 (ip), vehicle: saline with Tween-80 96 % of control and 103 % of control | [6] 96 % of control and 101 % of control | [7] 93 % of control and 112 % of control

Clc1nc(Cl)nc(Cl)n1
inactive: endpoint: mean survival time, dose: 100.0 mg/kg/injection, schedule: Q04DX002 (ip), vehicle: other 98 % of control | endpoint: mean survival time, dose: 200.0 mg/kg/injection, schedule: Q04DX002 (ip), vehicle: other 95 % of control

O=C1C=CC(=O)C2C3C=CC(CC3)C12 (centres undefined)
inactive: [8] 107 % of control | endpoint: mean survival time, dose: 200.0 mg/kg/injection, schedule: Q01DX001 (ip), vehicle: saline 98 % of control | endpoint: mean survival time, dose: 400.0 mg/kg/injection, schedule: Q01DX001 (ip), vehicle: saline 98 % of control

CN(C(=O)c1ccccc1C(=O)c1n[nH]c2ccccc12)c1ccccc1
inactive: endpoint: mean survival time, dose: 50.0 mg/kg/injection, schedule: Q04DX002 (ip), vehicle: Klucel (hydroxypropylcellulose) (HPC) 104 % of control | endpoint: mean survival time, dose: 100.0 mg/kg/injection, schedule: Q04DX002 (ip), vehicle: Klucel (hydroxypropylcellulose) (HPC) 97 % of control | endpoint: mean survival time, dose: 200.0 mg/kg/injection, schedule: Q04DX002 (ip), vehicle: Klucel (hydroxypropylcellulose) (HPC) 104 % of control

O=C(Nc1ccccn1)c1cc(N2CCOCC2)ccn1
inactive: [8] 102 % of control

CC(C)NC(=O)C1C2C=CC(C2)C1C(=O)NC(C)C (centres undefined)
inactive: [1] 100 % of control | [9] 100 % of control | [10] 91 % of control

CC(=O)Nc1ccn(CC(=O)c2ccco2)c(=O)n1
inactive: [6] 102 % of control | [1] 98 % of control | [7] 102 % of control | [9] 90 % of control | endpoint: mean survival time, dose: 400.0 mg/kg/injection, schedule: Q01DX009 (ip), vehicle: saline with Tween-80 104 % of control | [10] 93 % of control

Cc1cc(OC(=O)Nc2cccc(C(F)(F)F)c2)c(C)cc1Cl
inactive: [11] 106 % of control | [12] 118 % of control | [13] 102 % of control

O=C(CSCC(=O)c1ccccc1)c1ccccc1
inactive: [14] 93 % of control | [15] 104 % of control | [16] 112 % of control | endpoint: mean survival time, dose: 80.0 mg/kg/injection, schedule: Q01DX009 (ip), vehicle: Klucel (hydroxypropylcellulose) (HPC) 103 % of control | endpoint: mean survival time, dose: 115.0 mg/kg/injection, schedule: Q01DX009 (ip), vehicle: Klucel (hydroxypropylcellulose) (HPC) 100 % of control | endpoint: mean survival time, dose: 170.0 mg/kg/injection, schedule: Q01DX009 (ip), vehicle: Klucel (hydroxypropylcellulose) (HPC) 100 % of control

CCNc1nc(NCC)c(Cl)c(C(Cl)(Cl)Cl)n1
inactive: [16] 102 % of control | [11] 102 % of control | [12] 105 % of control

OC(CCN1CCCC1)(c1ccccc1)C1CCCCC1 (centres undefined)
inactive: endpoint: mean survival time, dose: 6.25 mg/kg/injection, schedule: Q01DX009 (ip), vehicle: Klucel (hydroxypropylcellulose) (HPC) 104 % of control and 108 % of control | [14] 95 % of control and 97 % of control and 102 % of control | [15] 103 % of control and 105 % of control | [17] 111 % of control | [16] 100 % of control and 106 % of control (2×) | [18] 101 % of control | [11] 103 % of control and 91 % of control | [19] 92 % of control | endpoint: median survival time, dose: 12.5 mg/kg/injection, schedule: Q01DX009 (ip), vehicle: Klucel (hydroxypropylcellulose) (HPC) 96 % of control | endpoint: median survival time, dose: 25.0 mg/kg/injection, schedule: Q01DX009 (ip), vehicle: Klucel (hydroxypropylcellulose) (HPC) 106 % of control | endpoint: median survival time, dose: 50.0 mg/kg/injection, schedule: Q01DX009 (ip), vehicle: Klucel (hydroxypropylcellulose) (HPC) 103 % of control | endpoint: median survival time, dose: 100.0 mg/kg/injection, schedule: Q01DX009 (ip), vehicle: Klucel (hydroxypropylcellulose) (HPC) 102 % of control

CC1(C#N)CC(C)(C)C(=O)N1 (centres undefined)
inactive: endpoint: mean survival time, dose: 75.0 mg/kg/injection, schedule: Q01DX001 (ip), vehicle: saline 102 % of control | endpoint: mean survival time, dose: 150.0 mg/kg/injection, schedule: Q01DX001 (ip), vehicle: saline 102 % of control | endpoint: mean survival time, dose: 300.0 mg/kg/injection, schedule: Q01DX001 (ip), vehicle: saline 108 % of control

CC(=O)Nc1ccc(/C=N\N=C\c2ccc(NC(C)=O)cc2)cc1
inactive: endpoint: mean survival time, dose: 100.0 mg/kg/injection, schedule: Q01DX009 (ip), vehicle: saline 88 % of control | [5] 100 % of control | endpoint: mean survival time, dose: 200.0 mg/kg/injection, schedule: Q01DX009 (ip), vehicle: saline 86 % of control | endpoint: mean survival time, dose: 200.0 mg/kg/injection, schedule: Q04DX003 (ip), vehicle: saline 105 % of control | endpoint: mean survival time, dose: 400.0 mg/kg/injection, schedule: Q04DX003 (ip), vehicle: saline 100 % of control

C/C(=N\Nc1ccccc1)C(C)C
inactive: [20] 118 % of control | [21] 94 % of control | [22] 96 % of control

COC(=O)c1c(C(=O)O)coc1C(=O)N1CCCC1
inactive: [20] 105 % of control | [23] 100 % of control | [21] 89 % of control | [24] 97 % of control | [22] 91 % of control | endpoint: mean survival time, dose: 400.0 mg/kg/injection, schedule: Q01DX001 (ip), vehicle: Klucel (hydroxypropylcellulose) (HPC) 105 % of control

O=C1CN(CN2CCCCC2)C(=O)CN1CN1CCCCC1
inactive: [11] 91 % of control | [19] 109 % of control | [12] 95 % of control | endpoint: mean survival time, dose: 200.0 mg/kg/injection, schedule: Q04DX003 (ip), vehicle: Klucel (hydroxypropylcellulose) (HPC) 106 % of control | endpoint: mean survival time, dose: 400.0 mg/kg/injection, schedule: Q04DX003 (ip), vehicle: Klucel (hydroxypropylcellulose) (HPC) 90 % of control

O=[N+]([O-])c1ccc(N/N=C2\Cc3ccccc3Cc3ccccc32)c([N+](=O)[O-])c1
inactive: endpoint: mean survival time, dose: 50.0 mg/kg/injection, schedule: Q01DX001 (ip), vehicle: Klucel (hydroxypropylcellulose) (HPC) 90 % of control | [23] 98 % of control | [24] 90 % of control

O=C(O)/C=C/c1ccccc1Cl
inactive: [17] 94 % of control | [18] 103 % of control | [19] 96 % of control

CCN(C)CCC(CN)(CCN(C)CC)c1cccc2ccccc12
inactive: [2] 93 % of control | [3] 101 % of control | [4] 93 % of control

O=C(Nc1ccccc1F)Nc1cc([N+](=O)[O-])ccc1Cl
inactive: [11] 87 % of control | [12] 94 % of control | [13] 87 % of control
